Broadly, the MIC is the lowest concentration found to suppress growth.

What all share (experiment): ≥ marks a high value that may be exact or a test limit, other limits are often not marked, values filed in µg/mL are converted to µM
One experiment concerns Aureobasidium pullulans.
The subject of experiment [1] is Candida albicans ATCC 10231.
For experiment [2], the system named is Corynebacterium glutamicum ATCC 13032.
In experiment [3] the test system is Escherichia coli ATCC 25922.
For experiment [4], the system named is Pseudomonas aeruginosa ATCC 27853.
The test system of experiment [5] is Staphylococcus aureus ATCC 9144.
The test system of experiment [6] is Klebsiella pneumoniae ATCC 13883.
For experiment [7], the system named is Staphylococcus aureus USA 300 LAC.
The test system of experiment [8] is Bacillus subtilis IFO 3037.
The test system of experiment [9] is Escherichia coli IFO 14237.
Experiment [10] relates to Pseudomonas aeruginosa IFO 12582.
For experiment [11], the system named is Staphylococcus aureus IFO 12732.
Experiment [12] has as its system Bacillus subtilis DSM 347.
Experiment [13] concerns Escherichia coli DSM 1116.
In experiment [14] the test system is Franconibacter helveticus DSM 18390.
For experiment [15], the system named is Staphylococcus xylosus DSM 20287.
For experiment [16], the system named is Bacillus cereus CMCC 6303.
Experiment [17] concerns Cronobacter sakazakii ATCC 29544.
In another experiment the test system is Escherichia coli UB1005.
Experiment [18] relates to Listeria monocytogenes CMCC 54004.
Experiment [19] has as its system Salmonella enterica subsp. enterica CMCC 47020.
The subject of experiment [20] is Salmonella enterica subsp. enterica serovar Pullorum C79-13.
In experiment [21] the test system is Salmonella enterica subsp. enterica serovar Typhi CMCC 50071.
Experiment [22] concerns Salmonella enterica subsp. enterica serovar Typhimurium ATCC 14028.
The test system of experiment [23] is Salmonella enterica subsp. enterica serovar Typhimurium C77-31.
The test system of experiment [24] is Staphylococcus aureus ATCC 25923.
The subject of experiment [25] is Staphylococcus aureus CMCC 26074.
Experiment [26] deals with Batrachochytrium dendrobatidis.
Experiment [27] has as its system Escherichia coli NBRC 14237.
Experiment [28] concerns Pseudomonas aeruginosa NBRC 12582.
In experiment [29] the test system is Saccharomyces cerevisiae NBRC 10217.
Experiment [30] has as its system Staphylococcus aureus NBRC 12732.
Experiment [31] has as its system Aspergillus oryzae NBRC 100959.
Experiment [32] has as its system Candida viswanathii NBRC 10321.
The subject of experiment [33] is Escherichia coli NBRC 3972.
Experiment [34] deals with Micrococcus luteus NBRC 3333.
Experiment [35] relates to Staphylococcus epidermidis NBRC 12993.

In brackets after ≈: the same amount, converted by molar mass. Where only a bound is given, the exact number is not on record here.

For the molecule `CC(C)[C@H](NC(=O)[C@H](CCCCN)NC(=O)[C@H](C)NC(=O)[C@@H](NC(=O)[C@@H](NC(=O)[C@H](CCCN=C(N)N)NC(=O)[C@H](CCCN=C(N)N)NC(=O)[C@H](Cc1c[nH]c2ccccc12)NC(=O)[C@H](Cc1c[nH]c2ccccc12)NC(=O)CN)[C@@H](C)O)C(C)C)C(=O)N[C@@H](CCCN=C(N)N)C(=O)N[C@@H](CCCCN)C(N)=O` [GWWRRTVAKVRK], the MIC against Aureobasidium pullulans was 12.5 µM (≈ 19.3 µg/mL); in experiment [1], 6.3 µM (≈ 9.71 µg/mL); in experiment [2], 0.4 µM (≈ 0.617 µg/mL); in experiment [3], 3.1 µM (≈ 4.78 µg/mL); in experiment [4], 1.6 µM (≈ 2.47 µg/mL); in [5], 12.5 µM (≈ 19.3 µg/mL).

For the molecule `CC[C@H](C)[C@H](N)C(=O)N[C@@H](Cc1c[nH]c2ccccc12)C(=O)N[C@@H](Cc1c[nH]c2ccccc12)C(=O)N[C@@H](Cc1c[nH]c2ccccc12)C(=O)N[C@@H](Cc1c[nH]c2ccccc12)C(=O)N[C@@H](CC(C)C)C(=O)N[C@@H](CCCN=C(N)N)C(=O)N[C@@H](CCCCN)C(N)=O` [IWWWWLRK], the minimum inhibitory concentration (MIC) in experiment [3] was 12.5 µM (≈ 15.9 µg/mL); in [6], 17.7 µM (≈ 22.5 µg/mL); in experiment [7], 3.1 µM (≈ 3.94 µg/mL).

Regarding `CC[C@H](C)[C@H](NC(=O)[C@H](CC(N)=O)NC(=O)[C@H](CC(C)C)NC(=O)[C@H](CCCCN)NC(=O)[C@@H](NC(=O)[C@@H](NC(=O)[C@H](CC(=O)O)NC(=O)[C@@H](N)Cc1ccccc1)[C@@H](C)CC)[C@@H](C)O)C(=O)N[C@@H](CCCCN)C(=O)N[C@@H](CCCCN)C(=O)N[C@@H](CC(C)C)C(=O)N[C@H](C(=O)N[C@@H](CCCCN)C(=O)N[C@@H](C)C(=O)N[C@H](C(=O)N[C@H]1CSSC[C@@H](C(=O)N[C@@H](CCCCN)C(=O)N[C@H](C(=O)N[C@@H](CC(C)C)C(=O)N[C@@H](Cc2ccccc2)C(=O)N[C@@H](CC(=O)O)C(=O)N[C@@H](CCCCN)C(=O)N[C@@H](CCCCN)C(=O)N[C@@H](CCCCN)C(=O)N[C@@H](CCC(N)=O)C(=O)N[C@@H](CCC(=O)O)C(=O)O)C(C)C)NC(=O)[C@H](CCSC)NC(=O)[C@H](CO)NC(=O)[C@H](C)NC(=O)CNC(=O)[C@H](CCCCN)NC(=O)[C@H](CO)NC(=O)[C@H]([C@@H](C)CC)NC(=O)[C@H](C(C)C)NC(=O)[C@H](CCCCN)NC1=O)[C@@H](C)O)[C@@H](C)O` [FDITKLNIKKLTKATCKVISKGASMCKVLFDKKKQE], the minimal inhibitory concentration (MIC) in experiment [8] was at least 50 µM; in experiment [9], 6.25 µM (≈ 25.5 µg/mL); in experiment [10] it was 25 µM (≈ 102 µg/mL); in experiment [11], 6.25 µM (≈ 25.5 µg/mL).

On to `CC[C@H](C)[C@H](N)C(=O)N[C@@H](C)C(=O)NCC(=O)N[C@@H](CCCCN)C(=O)N[C@H](C(=O)N[C@@H](C)C(=O)N[C@@H](CCCCN)C(=O)N[C@H](C(=O)N[C@@H](C)C(=O)NCC(=O)N[C@@H](CCCCN)C(=O)N[C@H](C(=O)N[C@@H](C)C(=O)N[C@@H](CCCCN)C(=O)N[C@H](C(=O)N[C@@H](C)C(=O)NCC(=O)N[C@@H](CCCCN)C(=O)N[C@H](C(=O)N[C@@H](C)C(=O)N[C@@H](CCCCN)C(=O)N[C@H](C(=O)N[C@@H](C)C(=O)NCC(=O)N[C@@H](CCCCN)C(=O)N[C@H](C(=O)N[C@@H](C)C(N)=O)[C@@H](C)CC)[C@@H](C)CC)[C@@H](C)CC)[C@@H](C)CC)[C@@H](C)CC)[C@@H](C)CC)[C@@H](C)CC` [IAGKIAKIAGKIAKIAGKIAKIAGKIA], for which the minimum inhibitory concentration (MIC) in experiment [12] turned out to be 1.08 µM (≈ 2.83 µg/mL); in experiment [13], 2.16 µM (≈ 5.65 µg/mL); in experiment [14], 1.08 µM (≈ 2.83 µg/mL); in experiment [15], 0.764 µM (≈ 2 µg/mL).

For the molecule `CC[C@H](C)[C@H](NC(=O)[C@H](CCCN=C(N)N)NC(=O)[C@H](CCCCN)NC(=O)[C@H](Cc1c[nH]c2ccccc12)NC(=O)[C@@H](N)CCCN=C(N)N)C(=O)N[C@H](C(=O)N[C@H](C(=O)N[C@H](C(=O)N[C@@H](CCCN=C(N)N)C(=O)N[C@@H](CCCCN)C(=O)N[C@@H](CCCN=C(N)N)C(=O)N[C@@H](CCCN=C(N)N)C(N)=O)[C@@H](C)CC)C(C)C)C(C)C` [RWKRIVVIRKRR], the MIC in experiment [16] is at least 128 µM; in experiment [17], at least 256 µM; in the experiment on Escherichia coli UB1005, at least 256 µM; in experiment [18], at least 128 µM; in experiment [19], at least 256 µM; in experiment [20], at least 256 µM. The MIC in experiment [21] was at least 128 µM; in experiment [22], 128 µM (≈ 213 µg/mL); in experiment [23], at least 256 µM; in experiment [24] it was over 256 µM; in experiment [25], at least 256 µM.

Regarding `CC[C@H](C)[C@H](NC(=O)[C@@H](NC(=O)[C@@H]1CCCN1C(=O)[C@H](CC(C)C)NC(=O)[C@@H](N)Cc1ccccc1)[C@@H](C)CC)C(=O)N[C@@H](C)C(=O)N[C@@H](CO)C(=O)N[C@@H](CC(C)C)C(=O)N[C@@H](CC(C)C)C(=O)NCC(=O)N[C@@H](CCCCN)C(=O)N[C@@H](CC(C)C)C(=O)N[C@@H](CC(C)C)C(N)=O` [FLPIIASLLGKLL], the minimum inhibitory concentration (MIC) in experiment [26] was 28.6 µM (≈ 40 µg/mL).

Consider `CSCC[C@H](NC(=O)CNC(=O)[C@@H](NC(=O)[C@H](CCCCN)NC(=O)[C@H](C)NC(=O)CNC(=O)[C@@H](NC(=O)[C@H](CCCCN)NC(=O)[C@H](C)NC(=O)[C@H](C)NC(=O)[C@H](CCCCN)NC(=O)[C@H](CCCCN)NC(=O)[C@H](CC(C)C)NC(=O)[C@H](Cc1ccccc1)NC(=O)[C@H](CC(N)=O)NC(=O)[C@H](CC(C)C)NC(=O)[C@H](Cc1ccccc1)NC(=O)[C@H](CCCCN)NC(=O)CNC(=O)CNC(=O)[C@@H](N)CCCCN)C(C)C)C(C)C)C(=O)N[C@@H](C)C(=O)N[C@@H](C)C(=O)N[C@@H](CC(C)C)C(=O)NCC(=O)O` [KGGKFLNFLKKAAKVGAKVGMAALG], for which the minimum inhibitory concentration (MIC) in experiment [27] was found to be 3.12 µM (≈ 7.83 µg/mL); in [28] it was 6.25 µM (≈ 15.7 µg/mL); in experiment [29] it was 6.25 µM (≈ 15.7 µg/mL); in experiment [30] it was 3.12 µM (≈ 7.83 µg/mL).

As for `CSCC[C@H](NC(=O)[C@H](CCCCN)NC(=O)[C@@H](N)CCCN=C(N)N)C(=O)N[C@@H](CCCCN)C(=O)N[C@@H](CCCN=C(N)N)C(=O)N[C@H](C(=O)N[C@@H](Cc1c[nH]c2ccccc12)C(=O)N[C@@H](CCCCN)C(=O)N[C@@H](CCCN=C(N)N)C(=O)N[C@@H](Cc1ccccc1)C(=O)N[C@@H](CCCCN)C(=O)N[C@@H](CC(C)C)C(=O)O)C(C)C` [RKMKRVWKRFKL], the minimal inhibitory concentration (MIC) in experiment [31] is 14.9 µM (≈ 25 µg/mL); in experiment [32] it was 14.9 µM (≈ 25 µg/mL); in [33], at least 239 µM; in experiment [34], 29.8 µM (≈ 50 µg/mL); in experiment [35] it was 14.9 µM (≈ 25 µg/mL).

(Values after DBAASP.)
